Experimental data taken from patent publication US12441722B2, “Therapeutic agents and methods of treatment” (University of Florida Research Foundation, Incorporated, priority 2020, dated 2025).

Tested on: MOLT-4
Assay: Cell viability assay (tetrazolium-based MTS) in MOLT4 cells
Conditions: MOLT4 acute lymphoblastic leukemia cells, 48 h incubation
Experimental: Cancer cells from acute lymphoblastic leukemia (MOLT4) were incubated with increasing concentrations of compounds of Examples 1-9 for 48 h. Cell viability was measured by tetrazolium-based MTS assay. 5×10^4 to 1×10^5 suspension cells or 3×10^3 to 5×10^3 adherent cells were seeded and treated in 96-well plates for 48 h. The EC50 values of individual agents were calculated with GraphPad Prism.

Compared with Cc1c(-c2ccc(N3CCc4cccc(C(=O)Nc5nc6ccccc6s5)c4C3)nc2C(=O)NCCOCCOCCOCC#Cc2ccc3c(c2)C(=O)N(C2CCC(=O)NC2=O)C3=O)cnn1CC12CC3CC(CC(C3)C1)C2 (stereo not shown) [degrader #27, 2-(5-(1-(adamantan-1-ylmethyl)-5-methyl-1H-pyrazol-4-yl)-6-((2-(2-(2-((3-(2-(2,6-dioxopiperidin-3-yl)-1,3-dioxoisoindolin-5-yl)prop-2-yn-1-yl)oxy)ethoxy)ethoxy)ethyl)carbamoyl)pyridin-2-yl)-N-(benzo[d]thiazol-2-yl)-1,2,3,4-tetrahydroisocuinoline-8-carboxamnide], Cc1c(-c2ccc(N3CCc4cccc(C(=O)Nc5nc6ccccc6s5)c4C3)nc2C(=O)NCCOCCOCCOCC#Cc2ccc3c(c2)CN(C2CCC(=O)NC2=O)C3=O)cnn1CC12CC3CC(CC(C3)C1)C2 (stereo not shown) [degrader #29, 2-(5-(1-(adamantan-1-ylmethyl)-5-methyl-1H-pyrazol-4-yl)-6-((2-(2-(2-((3-(2-(2,6-dioxopiperidin-3-yl)-1-oxoisoindolin-5-yl)prop-2-yn-1-yl)oxy)ethoxy)ethoxy)ethyl)carbamoyl)pyridin-2-yl)-N-(benzo[d]thiazol-2-yl)-1,2,3,4-tetrahydroisoguinoline-8-carboxamide] is lower in EC50: 10 to 100 nM for the first, under 10 nM for the second.

Cc1c(-c2ccc(N3CCc4cccc(C(=O)Nc5nc6ccccc6s5)c4C3)nc2C(=O)NCCOCCOCCOCC#Cc2cccc3c2CN(C2CCC(=O)NC2=O)C3=O)cnn1CC12CC3CC(CC(C3)C1)C2 (stereo not shown) [degrader #28, 2-(5-(1-(adamantan-1-ylmethyl)-5-methyl-1H-pyrazol-4-yl)-6-((2-(2-(2-((3-(2-(2,6-dioxopiperidin-3-yl)-1-oxoisoindolin-4-yl)prop-2-yn-1-yl)oxy)ethoxy)ethoxy)ethyl)carbamoyl)pyridin-2-yl)-N-(benzo[d]thiazol-2-yl)-1,2,3,4-tetrahydroisoguinoline-8-carboxamide] and Cc1c(-c2ccc(N3CCc4cccc(C(=O)Nc5nc6ccccc6s5)c4C3)nc2C(=O)NCCOCCOCCOCCCc2cccc3c2CN(C2CCC(=O)NC2=O)C3=O)cnn1CC12CC3CC(CC(C3)C1)C2 (stereo not shown) [degrader #32] cannot be ordered by EC50: under 10 nM for the first, under 10 nM for the second.

Cc1c(-c2ccc(N3CCc4cccc(C(=O)Nc5nc6ccccc6s5)c4C3)nc2C(=O)NCCOCCOCCOCCCc2cccc3c2C(=O)N(C2CCC(=O)NC2=O)C3=O)cnn1CC12CC3CC(CC(C3)C1)C2 (stereo not shown) [degrader #30, 2-(5-(1-(adamantan-1-ylmethyl)-5-methyl-1H-pyrazol-4-yl)-6-((2-(2-(2-(3-(2-(2,6-dioxopiperidin-3-yl)-1,3-dioxoisoindolin-4-yl)propoxy)ethoxy)ethoxy)ethyl)carbamoyl)pyridin-2-yl)-N-(benzo[d]thiazol-2-yl)-1,2,3,4-tetrahydroisociuinoline-8-carboxamide] and Cc1c(-c2ccc(N3CCc4cccc(C(=O)Nc5nc6ccccc6s5)c4C3)nc2C(=O)NCCOCCOCCOCCCc2ccc3c(c2)C(=O)N(C2CCC(=O)NC2=O)C3=O)cnn1CC12CC3CC(CC(C3)C1)C2 (stereo not shown) [degrader #31, 2-(5-(1-(adamantan-1-ylmethyl)-5-methyl-1H-pyrazol-4-yl)-6-((2-(2-(2-(3-(2-(2,6-dioxopiperidin-3-yl)-1,3-dioxoisoindolin-5-yl)propoxy)ethoxy)ethoxy)ethyl)carbamoyl)pyridin-2-yl)-N-(benzo[d]thiazol-2-yl)-1,2,3,4-tetrahydroisociuinoline-8-carboxamide] cannot be ordered by EC50: under 10 nM for the first, under 10 nM for the second.

First: Cc1c(-c2ccc(N3CCc4cccc(C(=O)Nc5nc6ccccc6s5)c4C3)nc2C(=O)NCCOCCOCCOCCCc2ccc3c(c2)CN(C2CCC(=O)NC2=O)C3=O)cnn1CC12CC3CC(CC(C3)C1)C2 (stereo not shown) [degrader #33, 2-(5-(1-(adamantan-1-ylmethyl)-5-methyl-1H-pyrazol-4-yl)-6-((2-(2-(2-(3-(2-(2,6-dioxopiperidin-3-yl)-1-oxoisoindolin-5-yl)propoxy)ethoxy)ethoxy)ethyl)carbamoyl)pyridin-2-yl)-N-(benzo[d]thiazol-2-yl) 1,2,3,4-tetrahydroisociuinoline-8-carboxamide]
Second: Cc1c(-c2ccc(N3CCc4cccc(C(=O)Nc5nc6ccccc6s5)c4C3)nc2C(=O)O)cnn1CC12CC3CC(C1)CC(C(=O)NCCOCCOCCOCCNc1cccc4c1C(=O)N(C1CCC(=O)NC1=O)C4=O)(C3)C2 (stereo not shown) [degrader #40, 6-(8-(benzo[d]thiazol-2-ylcarbamoyl)-3,4-dihydroisoquinolin-2(1H)-yl)-3-(1-(((1r,3r)-3-((2-(2-(2-(2-((2-(2,6-dioxopiperidin-3-yl)-1,3-dioxoisoindolin-4-yl)amino)ethoxy)ethoxy)ethoxy)ethyl)carbamoyl)adamantan-1-yl)methyl)-5-methyl-1H-pyrazol-4-yl)picolinic acid]
The EC50 of the first is lower: under 10 nM for the first, 10 to 100 nM for the second. The first is the more potent here.

Cc1c(-c2ccc(N3CCc4cccc(C(=O)Nc5nc6ccccc6s5)c4C3)nc2C(=O)O)cnn1CC12CC3CC(C1)CC(C(=O)NCCCCNc1cccc4c1C(=O)N(C1CCC(=O)NC1=O)C4=O)(C3)C2 (stereo not shown) [degrader #34, 6-(8-(benzo[d]thiazol-2-ylcarbamoyl)-3,4-dihydroisoquinolin-2(1H)-yl)-3-(1-(((1r,3r)-3-((4-((2-(2,6-dioxopiperidin-3-yl)-1,3-dioxoisoindolin-4-yl)amino)butyl)carbamoyl)adamantan-1-yl)methyl)-5-methyl-1H-pyrazol-4-yl)picolinic acid] and Cc1c(-c2ccc(N3CCc4cccc(C(=O)Nc5nc6ccccc6s5)c4C3)nc2C(=O)O)cnn1CC12CC3CC(C1)CC(C(=O)NCCCCCCNc1cccc4c1C(=O)N(C1CCC(=O)NC1=O)C4=O)(C3)C2 (stereo not shown) [degrader #35, 6-(8-(benzo[d]thiazol-2-ylcarbamoyl)-3,4-dihydroisoquinolin-2(1H)-yl)-3-(1-(((1r,3r)-3-((6-((2-(2,6-dioxopiperidin-3-yl)-1,3-dioxoisoindolin-4-yl)amino)hexyl)carbamoyl)adamantan-1-yl)methyl)-5-methyl-1H-pyrazol-4-yl)picolinic acid] fall in the same range of EC50: 10 to 100 nM for the first, 10 to 100 nM for the second.

First: Cc1c(-c2ccc(N3CCc4cccc(C(=O)Nc5nc6ccccc6s5)c4C3)nc2C(=O)O)cnn1CC12CC3CC(C1)CC(C(=O)NCCCCCCCCNc1cccc4c1C(=O)N(C1CCC(=O)NC1=O)C4=O)(C3)C2 (stereo not shown) [degrader #36, 6-(8-(benzo[d]thiazol-2-ylcarbamoyl)-3,4-dihydroisoquinolin-2(1H)-yl)-3-(1-(((1r,3r)-3-((8-((2-(2,6-dioxopiperidin-3-yl)-1,3-dioxoisoindolin-4-yl)amino)octyl)carbamoyl)adamantan-1-yl)methyl)-5-methyl-1H-pyrazol-4-yl)picolinic acid]
Second: Cc1c(-c2ccc(N3CCc4cccc(C(=O)Nc5nc6ccccc6s5)c4C3)nc2C(=O)O)cnn1CC12CC3CC(C1)CC(C(=O)NCCCCCCCCCCNc1cccc4c1C(=O)N(C1CCC(=O)NC1=O)C4=O)(C3)C2 (stereo not shown) [degrader #37, 6-(8-(benzo[d]thiazol-2-ylcarbamoyl)-3,4-dihydroisoquinolin-2(1H)-yl)-3-(1-(((1r,3r)-3-((10-((2-(2,6-dioxopiperidin-3-yl)-1,3-dioxoisoindolin-4-yl)amino)decyl)carbamoyl)adamantan-1-yl)methyl)-5-methyl-1H-pyrazol-4-yl)picolinic acid]
The EC50 of the first is lower: under 10 nM for the first, 10 to 100 nM for the second. The first is the more potent here.

Cc1c(-c2ccc(N3CCc4cccc(C(=O)Nc5nc6ccccc6s5)c4C3)nc2C(=O)O)cnn1CC12CC3CC(C1)CC(C(=O)NCCCCCCCCCCCCNc1cccc4c1C(=O)N(C1CCC(=O)NC1=O)C4=O)(C3)C2 (stereo not shown) [degrader #38, 6-(8-(benzo[d]thiazol-2-ylcarbamoyl)-3,4-dihydroisoquinolin-2(1H)-yl)-3-(1-(((1r,3r)-3-((12-((2-(2,6-dioxopiperidin-3-yl)-1,3-dioxoisoindolin-4-yl)amino)dodecyl)carbamoyl)adamantan-1-yl)methyl)-5-methyl-1H-pyrazol-4-yl)picolinic acid] and Cc1c(-c2ccc(N3CCc4cccc(C(=O)Nc5nc6ccccc6s5)c4C3)nc2C(=O)O)cnn1CC12CC3CC(C1)CC(C(=O)NCCOCCNc1cccc4c1C(=O)N(C1CCC(=O)NC1=O)C4=O)(C3)C2 (stereo not shown) [degrader #39, 6-(8-(benzo[d]thiazol-2-ylcarbamoyl)-3,4-dihydroisoquinolin-2(1H)-yl)-3-(1-(((1r,3r)-3-((2-(2-((2-(2,6-dioxopiperidin-3-yl)-1,3-dioxoisoindolin-4-yl)amino)ethoxy)ethyl)carbamoyl)adamantan-1-yl)methyl)-5-methyl-1H-pyrazol-4-yl)picolinic acid] fall in the same range of EC50: 10 to 100 nM for the first, 10 to 100 nM for the second.

Cc1ncsc1-c1ccc([C@H](C)NC(=O)[C@@H]2C[C@@H](O)CN2C(=O)[C@@H](NC(=O)CCNC(=O)C23CC4CC(CC(Cn5ncc(-c6ccc(N7CCc8cccc(C(=O)Nc9nc%10ccccc%10s9)c8C7)nc6C(=O)O)c5C)(C4)C2)C3)C(C)(C)C)cc1 [degrader #41, 6-(8-(benzo[d]thiazol-2-ylcarbamoyl)-3,4-dihydroisoquinolin-2(1H)-yl)-3-(1-(((1S,3r)-3-((3-(((S)-1-((2S,4R)-4-hydroxy-2-(((S)-1-(4-(4-methylthiazol-5-yl)phenyl)ethyl)carbamoyl)pyrrolidin-1-yl)-3,3-dimethyl-1-oxobutan-2-yl)amino)-3-oxopropyl)carbamoyl)adamantan-1-yl)methyl)-5-methyl-1H-pyrazol-4-yl)picolinic acid] and Cc1ncsc1-c1ccc([C@H](C)NC(=O)[C@@H]2C[C@@H](O)CN2C(=O)[C@@H](NC(=O)CCCCNC(=O)C23CC4CC(CC(Cn5ncc(-c6ccc(N7CCc8cccc(C(=O)Nc9nc%10ccccc%10s9)c8C7)nc6C(=O)O)c5C)(C4)C2)C3)C(C)(C)C)cc1 [degrader #42, 6-(8-(benzo[d]thiazol-2-ylcarbamoyl)-3,4-dihydroisoquinolin-2(1H)-yl)-3-(1-(((1S,3r)-3-((5-(((S)-1-((2S,4R)-4-hydroxy-2-(((S)-1-(4-(4-methylthiazol-5-yl)phenyl)ethyl)carbamoyl)pyrrolidin-1-yl)-3,3-dimethyl-1-oxobutan-2-yl)amino)-5-oxopentyl)carbamoyl)adamantan-1-yl)methyl)-5-methyl-1H-pyrazol-4-yl)picolinic acid] cannot be ordered by EC50: over 1000 nM for the first, over 1000 nM for the second.
